Experimental data: patent US9708312B2, “Dihydropyrimidinoisoquinolinones and pharmaceutical compositions thereof for the treatment of inflammatory disorders (GPR84 antagonists)” (GALAPAGOS NV, priority 2012, dated 2017)

Target: T1, GPR84 (Homo sapiens, UniProt Q9NQS5)
T1 construct: expressed in transfected cells
Test: GPR84 [35S]GTPγS binding assay, HEPES buffer
Type: biochemical
Details: 3,3′ di indolylmethane at EC80, membranes from stable cell line over expressing GPR84
Outline: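 Membranes from a stable GPR84-overexpressing cell line (20 μg/well), pre-incubated with 0.1 μM GDP for 15 min at 4° C, mixed with 0.1 nM [35S]GTPγS and WGA SpA beads in 20 mM HEPES pH 7.4, 5 mM MgCl2, 250 mM NaCl, 0.05% BSA, 75 ug/mL saponin. Incubated 90 min at room temperature; scintillation proximity read after centrifugation.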

T1 sequence (Q9NQS5 whole entry): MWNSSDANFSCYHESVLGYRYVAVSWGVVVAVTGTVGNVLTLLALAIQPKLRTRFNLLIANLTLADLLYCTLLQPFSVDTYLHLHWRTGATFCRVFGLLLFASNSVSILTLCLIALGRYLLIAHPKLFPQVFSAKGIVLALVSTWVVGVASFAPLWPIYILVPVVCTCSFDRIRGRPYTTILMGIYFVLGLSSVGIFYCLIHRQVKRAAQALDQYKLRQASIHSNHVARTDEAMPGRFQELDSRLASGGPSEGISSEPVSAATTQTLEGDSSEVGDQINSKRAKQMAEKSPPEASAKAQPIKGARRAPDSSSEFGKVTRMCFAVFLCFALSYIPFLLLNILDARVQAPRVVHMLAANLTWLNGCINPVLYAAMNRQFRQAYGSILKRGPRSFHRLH

SMILES | IC50
O=C(COc1ccc2c(c1)CCn1c-2cc(OCC2COc3ccccc3O2)nc1=O)N1CCCC1 (centres unmarked) [compound 74, 2-(2,3-dihydro-benzo[1,4]dioxin-2-ylmethoxy)-9-(2-oxo-2-pyrrolidin-1-yl-ethoxy)-6,7-dihydro-pyrimido[6,1-a]isoquinolin-4-one] | 100 to 500 nM
O=c1nc(OC[C@@H]2COc3ncccc3O2)cc2n1CCc1cc(OCc3ncco3)ccc1-2 [compound 190] | 100 to 500 nM

Target: T1, GPR84
Test: GPR84 [35S]GTPγS binding assay, Tris buffer (alternative)
Type: biochemical
Details: 3,3′ di indolylmethane at EC80, membranes from stable cell line over expressing GPR84, read-out: Alternative GPR84 assay GTPγS IC50 (GPR84-2)
Experimental: 1.1. Cell Based Assay: GTp-γ S Binding Assay.
The following assay can be used for determination of GPR84 activation. The [^35S]GTPγS binding assay measures the level of G protein activation following agonist occupation of a GPCR, by determining the binding of the non-hydrolysable analog [^35S]GTPγS to Gα subunits.
Alternatively, the assay is performed in a 96 well plate where the following reagents are added. First 50 μL compound is added into the assay plate, followed by addition of 20 μL 3,3′ di indolylmethane at EC80 concentration (concentration which gives 80% of the activity of GPR84). In a last step, 30 μL of a mixture consisting of membranes-GTPγS-SpA beads is added [mixture consists of 20 μg/well membranes derived from stable cell line over expressing GPR84 (membranes are pre-incubated with 0.1 μM GDP for 15 min at 4° C.), 0.1 nM [^35S]GTPγS (Perkin Elmer, NEG030) and 0.5 mg/well PVT-WGA SpA beads (Perkin Elmer, RPNQ0001)]. All components are diluted in assay buffer containing 20 mM Tris pH 7.5; 5 mM MgCl2; 250 mM NaCl; 0.05% BSA; 75 ug/mL saponin Reactions are incubated for 90 min at room temperature followed by centrifugation at 2000 rpm during 15 min. Plates are read on a Topcount reader (Perkin Elmer) immediately after centrifugation (readout time, 1 min/well).

SMILES | IC50
O=c1nc(OCC2CCCO2)cc2n1CCc1cc(-c3ccc(Cl)s3)ccc1-2 (centres unmarked) [compound 116, 9-(5-chloro-thiophen-2-yl)-2-(tetrahydro-furan-2-ylmethoxy)-6,7-dihydro-pyrimido[6,1-a]isoquinolin-4-one] | 500 to 1000 nM
N#CCCC#Cc1ccc2c(c1)CCn1c-2cc(OCC2COc3ncccc3O2)nc1=O (centres unmarked) [compound 143, 5-[2-(2,3-dihydro-[1,4]dioxino[2,3-b]pyridin-2-ylmethoxy)-4-oxo-6,7-dihydro-pyrimido[6,1-a]isoquinolin-9-yl]-pent-4-ynenitrile] | 0.01 to 100 nM
O=c1nc(OCC2COc3ncccc3O2)cc2n1CCc1cc(C#CCCO)ccc1-2 (centres unmarked) [compound 133, 2-(2,3-dihydro-[1,4]dioxino[2,3-b]pyridin-2-ylmethoxy)-9-(4-hydroxy-but-1-ynyl)-6,7-dihydro-pyrimido[6,1-a]isoquinolin-4-one] | 0.01 to 100 nM
O=c1nc(OCC2COc3ncccc3O2)cc2n1CCc1cc(-c3cccnc3)ccc1-2 (centres unmarked) [compound 124, 2-(2,3-Dihydro-[1,4]dioxino[2,3-b]pyridin-2-ylmethoxy)-9-pyridin-3-yl-6,7-dihydro-pyrimido[6,1-a]isoquinolin-4-one] | 0.01 to 100 nM
O=c1nc(OCC2COc3ncccc3O2)cc2n1CCc1cc(-c3ccc4[nH]ncc4c3)ccc1-2 (centres unmarked) [compound 127, 2-(2,3-Dihydro-[1,4]dioxino[2,3-b]pyridin-2-ylmethoxy)-9-(1H-indazol-5-yl)-6,7-dihydro-pyrimido[6,1-a]isoquinolin-4-one] | 0.01 to 100 nM

Test system: human neutrophils
Test: Human neutrophil migration assay (embelin-induced chemotaxis)
Type: cell-based
Details: not given
Experimental: 2.1. Human Neutrophil Migration Assay
The effect of agonists or antagonists for GPR84 can therefore be assayed in a neutrophil migration test. In the neutrophil migration assay, neutrophils, freshly isolated from buffy coats from human volunteers, are treated with a compound for 30 min Subsequently, the neutrophils are transferred to the upper wells of a Corning HTS transwell 96 permeable support system, of which the lower wells are filled with a embelin solution at EC80 (concentration which gives 80% of the activity of GPR84). After 1 h of incubation, migration of the neutrophils towards embelin in the lower compartment can be quantified by measuring the ATP-content of the lower wells using the ATPlite luminescence ATP detection assay system (Perkin Elmer, Cat. No.: 436110).
2.1.1 Isolation of Neutrophils from Human Buffy Coat
A human buffy coat is diluted with an equal volume of ice cold DPBS. 20 mL of the diluted buffy coat is gently mixed with 4 mL of ACD buffer (140 mM citric acid, 200 mM sodium citrate and 220 mM dextrose). Then, 12 mL of the 6% dextran/0.9% NaCl solution (15 g dextran T2000 and 2.25 g NaCl dissolved in 250 mL H2O) is added to the mixture and the samples are inverted gently up to 20 times. The total volume was transferred to a new recipient and incubated at room temperature for 1 h for complete separation of the two phases to occur. The yellowish supernatant is then transferred to a clean centrifugation tube and centrifuged for 12 min at 1300 rpm and 4° C. After centrifugation, the supernatant is discarded and the remaining cell pellet is rapidly resuspended in 12 mL of ice-cold H2O for red blood cell lysis to occur. After 20 seconds, 4 mL of ice-cold 0.6 M KCl is added. Samples are mixed carefully and centrifuged for 6 min at 1300 rpm, 4° C. The supernatant is discarded and the red blood cell lysis procedure is repeated one more time. Subsequently, the cell pellet is resuspended in 4 mL of DPBS and layered over 5 mL of Lymphoprep (Nycomed Pharma, Cat. No.: 1114545) in a 15 mL centrifuge tube. After centrifugation for 12 min at 1300 rpm, 4° C., the supernatant is removed and the cell pellet, containing the neutrophils, is resuspended in 25 mL chemotaxis buffer (RPMI 1640 medium, supplemented with 10 mM HEPES; freshly made for each experiment)
A cell suspension of 8.9×10^6 cells per milliliter is prepared. 20 μL of compound solution in chemotaxis buffer is added to 180 μL cell suspension. The mixture is incubated at 37° C. for 30 min with intermediate resuspension of the cells after 15 min Following this, 70 μL cell suspension is transferred to the upper compartment of a Corning HTS transwell 96 permeable support system with 5.0 μm pore size polycarbonate membrane (Corning, Cat. No.: 3387). The receiver well of the transwell system is then filled with 200 μL chemotaxis buffer containing compound and chemotactic agent (embelin). After incubation at 37° C. in 5% CO2 for 1 h, the upper plate of the transwell system is removed and the cell suspension in the receiver plate is transferred to a 96-well V-bottom plate. 50 μL of DPBS is added to the receiver plate to prevent remaining cells from drying out. The V-bottom plate is centrifuged for 6 min at 1500 rpm. The supernatant is removed and the cells are resuspended in 50 μL DPBS. The cells are then transferred back to the receiver plate of the transwell system. After this, 100 μL ATPlite solution (Perkin Elmer, Cat. No: 436110) was added to the cells. The plate is incubated for 10 min in the dark, while shaking. […] of cell lysate is then transferred to a white 96-well plate and luminescence is measured. The detected luminescent signal is considered as linearely related to the number of cells having migrated from the upper well to the receiver well.

SMILES | neutrophil chemotaxis induced by GPR84 agonists
CCCCCCCCCC(=O)[O-].[Na+] [sodiumdecanoate, reference compound] | induce neutrophil chemotaxis
c1ccc2c(Cc3c[nH]c4ccccc34)c[nH]c2c1 [3,3′ di indolylmethane, reference compound] | induce neutrophil chemotaxis

Same assay, conditions: Neutrophil; neutrophils from human buffy coats; embelin at EC80

IC50 | SMILES
0.01 to 100 nM | O=C(COc1ccc2c(c1)CCn1c-2cc(OCC2COc3ccccc3O2)nc1=O)N1CCCC1 (centres unmarked) [compound 74, 2-(2,3-dihydro-benzo[1,4]dioxin-2-ylmethoxy)-9-(2-oxo-2-pyrrolidin-1-yl-ethoxy)-6,7-dihydro-pyrimido[6,1-a]isoquinolin-4-one]
0.01 to 100 nM | N#CCOc1ccc2c(c1)CCn1c-2cc(OCC2COc3ncccc3O2)nc1=O (centres unmarked) [compound 89, [2-(2,3-dihydro-[1,4]dioxino[2,3-b]pyridin-2-ylmethoxy)-4-oxo-6,7-dihydro-4H-pyrimido[6,1-a]isoquinolin-9-yloxy]-acetonitrile]
0.01 to 100 nM | O=c1nc(OCC2CCCO2)cc2n1CCc1cc(OCc3cccc([N+](=O)[O-])c3)ccc1-2 (centres unmarked) [compound 32, 9-(3-nitro-benzyloxy)-2-(tetrahydro-furan-2-ylmethoxy)-6,7-dihydro-pyrimido[6,1-a]isoquinolin-4-one]
0.01 to 100 nM | O=c1nc(OC[C@H]2COc3ncccc3O2)cc2n1CCc1cc(OCc3ncco3)ccc1-2 [compound 189]
0.01 to 100 nM | O=c1nc(OC[C@@H]2COc3ncccc3O2)cc2n1CCc1cc(OCc3ncco3)ccc1-2 [compound 190]
0.01 to 100 nM | O=c1nc(OCC2COc3ncccc3O2)cc2n1CCc1cc(OCc3ccccn3)ccc1-2 (centres unmarked) [compound 91, 2-(2,3-dihydro-[1,4]dioxino[2,3-b]pyridin-2-ylmethoxy)-9-(pyridin-2-ylmethoxy)-6,7-dihydro-pyrimido[6,1-a]isoquinolin-4-one]
0.01 to 100 nM | O=c1nc(OCC2CCCO2)cc2n1CCc1cc(OCC3COc4ccccc4O3)ccc1-2 (centres unmarked) [compound 18, 9-(2,3-dihydro-benzo[1,4]dioxin-2-ylmethoxy)-2-(tetrahydro-furan-2-ylmethoxy)-6,7-dihydro-pyrimido[6,1-a]isoquinolin-4-one]

Continued, compound first:

SMILES | IC50
CCC(O)C#Cc1ccc2c(c1)CCn1c-2cc(OCC2COc3ncccc3O2)nc1=O (centres unmarked) [compound 182, 2-(2,3-dihydro-[1,4]dioxino[2,3-b]pyridin-2-ylmethoxy)-9-(3-hydroxy-pent-1-ynyl)-6,7-dihydro-pyrimido[6,1-a]isoquinolin-4-one] | 0.01 to 100 nM
CCCC(O)C#Cc1ccc2c(c1)CCn1c-2cc(OCC2COc3ncccc3O2)nc1=O (centres unmarked) [compound 183, 2-(2,3-dihydro-[1,4]dioxino[2,3-b]pyridin-2-ylmethoxy)-9-(3-hydroxy-hex-1-ynyl)-6,7-dihydro-pyrimido[6,1-a]isoquinolin-4-one] | 0.01 to 100 nM
O=c1nc(OCC2COc3ncccc3O2)cc2n1CCc1cc(COC3COC3)ccc1-2 (centres unmarked) [compound 202, 2-(2,3-dihydro-[1,4]dioxino[2,3-b]pyridin-2-ylmethoxy)-9-(oxetan-3-yloxymethyl)-6,7-dihydro-pyrimido[6,1-a]isoquinolin-4-one] | 0.01 to 100 nM
CC(C)(O)C#Cc1ccc2c(c1)CCn1c-2cc(OCC2COc3ncccc3O2)nc1=O (centres unmarked) [compound 136, 2-(2,3-dihydro-[1,4]dioxino[2,3-b]pyridin-2-ylmethoxy)-9-(3-hydroxy-3-methyl-but-1-ynyl)-6,7-dihydro-pyrimido[6,1-a]isoquinolin-4-one] | 0.01 to 100 nM
O=c1nc(OCC2COc3ncccc3O2)cc2n1CCc1cc(C#CCNCc3ccccc3)ccc1-2 (centres unmarked) [compound 193, 9-(3-benzylamino-prop-1-ynyl)-2-(2,3-dihydro-[1,4]dioxino[2,3-b]pyridin-2-ylmethoxy)-6,7-dihydro-pyrimido[6,1-a]isoquinolin-4-one] | 0.01 to 100 nM
O=c1nc(OCC2COc3ncccc3O2)cc2n1CCc1cc(-c3cn[nH]c3)ccc1-2 (centres unmarked) [compound 180, 2-(2,3-dihydro-[1,4]dioxino[2,3-b]pyridin-2-ylmethoxy)-9-(1H-pyrazol-4-yl)-6,7-dihydro-pyrimido[6,1-a]isoquinolin-4-one] | 0.01 to 100 nM
CC(O)C#Cc1ccc2c(c1)CCn1c-2cc(OCC2COc3ncccc3O2)nc1=O (centres unmarked) [compound 181, 2-(2,3-dihydro-[1,4]dioxino[2,3-b]pyridin-2-ylmethoxy)-9-(3-hydroxy-but-1-ynyl)-6,7-dihydro-pyrimido[6,1-a]isoquinolin-4-one] | 0.01 to 100 nM
